What was measured:
OATP1B3 [1] = biological target: T1, OATP1B3 (Homo sapiens, UniProt Q9NPD5); experiment: concentration-dependent uptake in HEK293T cells, LC-MS; assay type: cell-based
T1 construct: gene SLCO1B3; stably expressed in HEK293T cells (Shanghai Genechem), sodium butyrate induced
T1 sequence (Q9NPD5 1-702): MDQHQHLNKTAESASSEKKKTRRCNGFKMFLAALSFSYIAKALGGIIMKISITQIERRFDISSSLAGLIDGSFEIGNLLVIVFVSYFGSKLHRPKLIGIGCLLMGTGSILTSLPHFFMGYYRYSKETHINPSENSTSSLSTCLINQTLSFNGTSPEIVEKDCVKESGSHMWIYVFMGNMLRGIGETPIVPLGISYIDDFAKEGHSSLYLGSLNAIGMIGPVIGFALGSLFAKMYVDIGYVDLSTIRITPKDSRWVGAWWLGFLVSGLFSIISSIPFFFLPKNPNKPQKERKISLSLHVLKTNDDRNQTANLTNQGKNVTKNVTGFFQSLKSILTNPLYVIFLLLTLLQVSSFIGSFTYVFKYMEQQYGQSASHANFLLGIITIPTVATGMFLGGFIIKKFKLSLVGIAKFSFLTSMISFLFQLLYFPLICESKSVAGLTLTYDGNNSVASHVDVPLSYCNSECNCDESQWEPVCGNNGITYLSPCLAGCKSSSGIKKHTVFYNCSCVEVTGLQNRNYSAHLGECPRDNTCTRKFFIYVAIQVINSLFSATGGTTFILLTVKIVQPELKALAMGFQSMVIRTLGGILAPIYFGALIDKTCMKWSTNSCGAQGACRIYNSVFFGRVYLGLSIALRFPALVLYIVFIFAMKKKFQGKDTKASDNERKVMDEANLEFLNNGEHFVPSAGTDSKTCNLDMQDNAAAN
From the text: concentration-dependent uptake in HEK293T cells, LC-MS on OATP1B3 | uptake process of OPD for OATP1B3 followed a typical Michaelis-Menten equation

OATP1B3 [2] = biological target: T1, OATP1B3; experiment: inhibition of ophiopogonin D uptake in HEK293T cells, LC-MS; assay type: cell-based
From the text: inhibition of ophiopogonin D uptake in HEK293T cells, LC-MS on OATP1B3

| Compound | Km (OATP1B3 [1]) | IC50 (OATP1B3 [2]) |
| --- | --- | --- |
| C[C@@H]1CC[C@@]2(OC1)O[C@H]1C[C@H]3[C@@H]4CC=C5C[C@@H](O)C[C@@H](O[C@@H]6O[C@H](C)[C@H](O)[C@H](O[C@@H]7OC[C@@H](O)[C@H](O)[C@H]7O)[C@H]6O[C@@H]6O[C@@H](C)[C@H](O)[C@@H](O)[C@H]6O)[C@]5(C)[C@H]4CC[C@]3(C)[C@H]1[C@@H]2C [Ophiopogonin D] | 11.3 µM |  |
| CC(C)=CCC[C@](C)(O[C@@H]1O[C@H](CO[C@@H]2O[C@H](CO)[C@@H](O)[C@H](O)[C@H]2O)[C@@H](O)[C@H](O)[C@H]1O)[C@H]1CC[C@]2(C)[C@@H]1[C@H](O)C[C@@H]1[C@@]3(C)CC[C@H](O[C@@H]4O[C@H](CO)[C@@H](O)[C@H](O)[C@H]4O[C@@H]4O[C@H](CO)[C@@H](O)[C@H](O)[C@H]4O)C(C)(C)[C@@H]3CC[C@]12C [ginsenoside Rb1] |  | 570 nM |
| CC(C)=CCC[C@](C)(O[C@@H]1O[C@H](CO)[C@@H](O)[C@H](O)[C@H]1O)[C@H]1CC[C@]2(C)[C@@H]1[C@H](O)C[C@@H]1[C@@]3(C)CC[C@H](O[C@@H]4O[C@H](CO)[C@@H](O)[C@H](O)[C@H]4O[C@@H]4O[C@H](CO)[C@@H](O)[C@H](O)[C@H]4O)C(C)(C)[C@@H]3CC[C@]12C [ginsenoside Rd] |  | 320 nM |

— PMC6113708, “Ginsenoside Rb1 and Rd Remarkably Inhibited the Hepatic Uptake of Ophiopogonin D in Shenmai Injection Mediated by OATPs/oatps” (Frontiers in Pharmacology, 2018)
